Measured values from PMC6979384, “Characterization of the plant homeodomain (PHD) reader family for their histone tail interactions” (Epigenetics & Chromatin, 2020).

What was measured:
Assay in all cases: Histone peptide microarray
Type in all cases: binding, human
SP140L = settings: SP140L, GST-tagged; arrays performed twice, n of 4
Source text: (§1) To more comprehensively define the histone interactions of the 31 PHD readers identified from the domain microarray analyses, we probed each on an alternate microarray platform containing a library of 293 synthetic histone peptides with single or combinatorial PTMs (Additional file 2: Figure S4 and Additional file 3: Table S2).
(§2) The 31 GST-tagged PHD readers identified in the PHD finger domain array were expressed and purified as previously. Histone peptide arrays and peptide pulldown assays were conducted as recently described (specifically, the optimized protocol from Petell et al. for the former).
(§3) Supplementary file 13072_2020_328_MOESM3_ESM.xlsx: Additional file 3: Table S2. […] Excel Tab Peptide List is a compiled list of the entire 293 histone peptide library with amino acid sequence ranges. […] Each number corresponds to the peptide number designated in Peptide List. Excel Tab Average Signals is a compiled set of binding data: chromatin reader at 0.5 μM vs. entire 293 peptide library. Data is presented as the average and standard deviation of 4 replicates. The average signals are colored to indicate signal intensity with green being strong and white being weak/low. […] Key: red= stronger relative binding; blue = weaker relative binding. Excel Tab Array info summary is a table summarizing the domains, sequence coverage, array signal range, and noise for each of the GST-tagged readers assayed on the peptide microarrays.

DIDO1 = settings: DIDO1, GST-tagged; arrays performed twice, n of 4
Source text: as §1, §2, §3

KDM5B (3) = settings: KDM5B (3), GST-tagged; arrays performed twice, n of 4
Source text: as §1, §2, §3

PHF8 = settings: PHF8, GST-tagged; arrays performed twice, n of 4
Source text: as §1, §2, §3

PHRF1 (RP) = settings: PHRF1 (RP), GST-tagged; arrays performed twice, n of 4
Source text: as §1, §2, §3

ING5 = settings: ING5, GST-tagged; arrays performed twice, n of 4
Source text: as §1, §2, §3

KDM7A = settings: KDM7A, GST-tagged; arrays performed twice, n of 4
Source text: as §1, §2, §3

PHF23 = settings: PHF23, GST-tagged; arrays performed twice, n of 4
Source text: as §1, §2, §3

TRIM66 (PB) = settings: TRIM66 (PB), GST-tagged; arrays performed twice, n of 4
Source text: as §1, §2, §3

BPTF (PB) = settings: BPTF (PB), GST-tagged; arrays performed twice, n of 4
Source text: as §1, §2, §3

KDM5A (3) = settings: KDM5A (3), GST-tagged; arrays performed twice, n of 4
Source text: as §1, §2, §3

CHD5 (PCC) = settings: CHD5 (PCC), GST-tagged; arrays performed twice, n of 4
Source text: as §1, §2, §3

ING4 = settings: ING4, GST-tagged; arrays performed twice, n of 4
Source text: as §1, §2, §3

KDM5A (1) = settings: KDM5A (1), GST-tagged; arrays performed twice, n of 4
Source text: as §1, §2, §3

TAF3 = settings: TAF3, GST-tagged; arrays performed twice, n of 4
Source text: as §1, §2, §3

RAG2 = settings: RAG2, GST-tagged; arrays performed twice, n of 4
Source text: as §1, §2, §3

ING2 = settings: ING2, GST-tagged; arrays performed twice, n of 4
Source text: as §1, §2, §3

MORC3 (CW) = settings: MORC3 (CW), GST-tagged; arrays performed twice, n of 4
Source text: as §1, §2, §3

ING3 = settings: ING3, GST-tagged; arrays performed twice, n of 4
Source text: as §1, §2, §3

KDM4C (TTP) = settings: KDM4C (TTP), GST-tagged; arrays performed twice, n of 4
Source text: as §1, §2, §3

PHF13 = settings: PHF13, GST-tagged; arrays performed twice, n of 4
Source text: as §1, §2, §3

MLL5 = settings: MLL5, GST-tagged; arrays performed twice, n of 4
Source text: as §1, §2, §3

PHF21A = settings: PHF21A, GST-tagged; arrays performed twice, n of 4
Source text: as §1, §2, §3

CHD4 (PPCC) = settings: CHD4 (PPCC), GST-tagged; arrays performed twice, n of 4
Source text: as §1, §2, §3

PHF2 = settings: PHF2, GST-tagged; arrays performed twice, n of 4
Source text: as §1, §2, §3

DPF2 (PPC2W2) = settings: DPF2 (PPC2W2), GST-tagged; arrays performed twice, n of 4
Source text: as §1, §2, §3

ING1 = settings: ING1, GST-tagged; arrays performed twice, n of 4
Source text: as §1, §2, §3

AIRE (PP) = settings: AIRE (PP), GST-tagged; arrays performed twice, n of 4
Source text: as §1, §2, §3

BAZ2B = settings: BAZ2B, GST-tagged; arrays performed twice, n of 4
Source text: as §1, §2, §3

CHD5 (PPCC) = settings: CHD5 (PPCC), GST-tagged; arrays performed twice, n of 4
Source text: as §1, §2, §3

| Substance | Array Heatmap value (peptide array binding signal) (SP140L) | Array Heatmap value (peptide array binding signal) (DIDO1) | Array Heatmap value (peptide array binding signal) (KDM5B (3)) | Array Heatmap value (peptide array binding signal) (PHF8) | Array Heatmap value (peptide array binding signal) (PHRF1 (RP)) | Array Heatmap value (peptide array binding signal) (ING5) | Array Heatmap value (peptide array binding signal) (KDM7A) | Array Heatmap value (peptide array binding signal) (PHF23) | Array Heatmap value (peptide array binding signal) (TRIM66 (PB)) | Array Heatmap value (peptide array binding signal) (BPTF (PB)) | Array Heatmap value (peptide array binding signal) (KDM5A (3)) | Array Heatmap value (peptide array binding signal) (CHD5 (PCC)) | Array Heatmap value (peptide array binding signal) (ING4) | Array Heatmap value (peptide array binding signal) (KDM5A (1)) | Array Heatmap value (peptide array binding signal) (TAF3) | Array Heatmap value (peptide array binding signal) (RAG2) | Array Heatmap value (peptide array binding signal) (ING2) | Array Heatmap value (peptide array binding signal) (MORC3 (CW)) | Array Heatmap value (peptide array binding signal) (ING3) | Array Heatmap value (peptide array binding signal) (KDM4C (TTP)) | further results |
| --- | --- | --- | --- | --- | --- | --- | --- | --- | --- | --- | --- | --- | --- | --- | --- | --- | --- | --- | --- | --- | --- |
| H4K8ac + K20ac: H4 1-23 | 0.3646 | 0.6199 | 0.4924 | 0.3864 | 0.4283 | 0.3709 | 0.4148 | 0.5223 | 0.5664 | 0.3587 | 0.4422 | 0.8384 | 0.4785 | 0.512 | 0.2852 | 0.2452 | 0.5825 | 0.3621 | 0.4639 | 0.5368 | Array Heatmap value (peptide array binding signal) (PHF13): 0.5975; Array Heatmap value (peptide array binding signal) (MLL5): 0.5364; Array Heatmap value (peptide array binding signal) (PHF21A): 0.4807; Array Heatmap value (peptide array binding signal) (CHD4 (PPCC)): 0.5794; Array Heatmap value (peptide array binding signal) (PHF2): 0.4411; Array Heatmap value (peptide array binding signal) (DPF2 (PPC2W2)): 0.6725; Array Heatmap value (peptide array binding signal) (ING1): 0.5081; Array Heatmap value (peptide array binding signal) (AIRE (PP)): 0.5419; Array Heatmap value (peptide array binding signal) (BAZ2B): 0.4848; Array Heatmap value (peptide array binding signal) (CHD5 (PPCC)): 0.5684 |
| H4K16ac + K20ac: H4 1-23 | 0.3563 | 0.6429 | 0.4989 | 0.3492 | 0.4351 | 0.3611 | 0.3784 | 0.5182 | 0.6284 | 0.3565 | 0.425 | 0.7957 | 0.47 | 0.4687 | 0.2987 | 0.2369 | 0.5955 | 0.3738 | 0.4609 | 0.4892 | Array Heatmap value (peptide array binding signal) (PHF13): 0.6126; Array Heatmap value (peptide array binding signal) (MLL5): 0.5457; Array Heatmap value (peptide array binding signal) (PHF21A): 0.4767; Array Heatmap value (peptide array binding signal) (CHD4 (PPCC)): 0.5676; Array Heatmap value (peptide array binding signal) (PHF2): 0.4717; Array Heatmap value (peptide array binding signal) (DPF2 (PPC2W2)): 0.6637; Array Heatmap value (peptide array binding signal) (ING1): 0.529; Array Heatmap value (peptide array binding signal) (AIRE (PP)): 0.5176; Array Heatmap value (peptide array binding signal) (BAZ2B): 0.4551; Array Heatmap value (peptide array binding signal) (CHD5 (PPCC)): 0.5492 |
| H4S1p + K5ac + K8ac + K12ac + K16ac: H4 1-23 | 0.3938 | 0.7637 | 0.545 | 0.3922 | 0.5208 | 0.4228 | 0.3878 | 0.5865 | 0.6554 | 0.3984 | 0.4753 | 0.835 | 0.5155 | 0.5302 | 0.311 | 0.2856 | 0.6187 | 0.4113 | 0.5554 | 0.5634 | Array Heatmap value (peptide array binding signal) (PHF13): 0.677; Array Heatmap value (peptide array binding signal) (MLL5): 0.5849; Array Heatmap value (peptide array binding signal) (PHF21A): 0.5171; Array Heatmap value (peptide array binding signal) (CHD4 (PPCC)): 0.615; Array Heatmap value (peptide array binding signal) (PHF2): 0.5298; Array Heatmap value (peptide array binding signal) (DPF2 (PPC2W2)): 0.7325; Array Heatmap value (peptide array binding signal) (ING1): 0.5918; Array Heatmap value (peptide array binding signal) (AIRE (PP)): 0.484; Array Heatmap value (peptide array binding signal) (BAZ2B): 0.5342; Array Heatmap value (peptide array binding signal) (CHD5 (PPCC)): 0.6446 |
